According to PMC6925601 (European journal of medicinal chemistry, 2019):
Values belong to the molecule of their own block, whether it stands above or below them.

How the values were obtained:
[1] = biological target: T1, human neutrophil elastase (HNE) (Homo sapiens, UniProt P08246); assay: HNE inhibitory assay; type: biochemical
T1 sequence (P08246 30-247 limits assumed): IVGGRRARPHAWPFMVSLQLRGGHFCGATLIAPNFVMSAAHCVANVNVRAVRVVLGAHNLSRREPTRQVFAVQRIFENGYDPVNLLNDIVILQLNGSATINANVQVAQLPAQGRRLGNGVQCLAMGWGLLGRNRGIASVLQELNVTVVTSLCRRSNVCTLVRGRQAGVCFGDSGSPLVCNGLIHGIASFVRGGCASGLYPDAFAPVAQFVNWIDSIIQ

MKK7 = biological target: T2, MKK7 (Homo sapiens, UniProt O14733); assay: KINOMEscan kinase binding assay; details: for Kd (μM) vs MKK7: KINOMEscan, duplicate, maximum concentration 30 μM
T2 sequence (O14733 1-419): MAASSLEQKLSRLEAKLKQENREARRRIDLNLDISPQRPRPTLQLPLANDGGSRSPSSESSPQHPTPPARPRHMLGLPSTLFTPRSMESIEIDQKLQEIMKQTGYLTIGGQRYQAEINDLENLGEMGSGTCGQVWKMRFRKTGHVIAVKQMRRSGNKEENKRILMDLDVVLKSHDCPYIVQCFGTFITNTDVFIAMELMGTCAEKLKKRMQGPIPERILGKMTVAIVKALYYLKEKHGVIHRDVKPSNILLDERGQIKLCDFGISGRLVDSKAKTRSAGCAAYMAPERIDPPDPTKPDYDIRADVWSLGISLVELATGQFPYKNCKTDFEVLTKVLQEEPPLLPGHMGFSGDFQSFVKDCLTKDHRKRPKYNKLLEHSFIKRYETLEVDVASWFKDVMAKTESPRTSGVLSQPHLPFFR

[2] = system: nine tumor cell lines and primary PBMCs; assay: Cytotoxicity across the panel of nine tumor cell lines and PBMCs; type: cell-based, human; details: 24 h; for IC50: Homo sapiens, PBMC, read-out: cytotoxic activity IC50 for most of the cell lines; for cytotoxicity toward tumor cell lines and PBMCs (in words): up to 50 μM
MKK4 = biological target: T3, MKK4 (Homo sapiens, UniProt P45985); assay: KINOMEscan kinase binding assay; details: for Kd for MKK4: KINOMEscan, data not shown
T3 sequence (P45985 1-399): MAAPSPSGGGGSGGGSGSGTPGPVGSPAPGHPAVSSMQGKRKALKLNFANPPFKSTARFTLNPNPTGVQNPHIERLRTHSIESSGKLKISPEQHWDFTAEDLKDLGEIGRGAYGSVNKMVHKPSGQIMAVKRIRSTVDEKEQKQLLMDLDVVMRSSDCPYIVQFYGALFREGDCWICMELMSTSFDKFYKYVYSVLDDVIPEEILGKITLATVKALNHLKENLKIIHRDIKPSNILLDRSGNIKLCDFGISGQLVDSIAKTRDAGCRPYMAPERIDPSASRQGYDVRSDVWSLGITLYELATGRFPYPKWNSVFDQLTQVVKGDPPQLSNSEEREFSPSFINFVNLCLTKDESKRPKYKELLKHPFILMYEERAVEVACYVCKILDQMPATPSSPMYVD

[3] = system: SW-982 synovial sarcoma cells; assay: Anticancer cell cytotoxicity assay; type: cell-based; details: Homo sapiens, SW982, 24 h, read-out: SW-982 IC50 (μM)
[4] = system: MCF7 breast adenocarcinoma cells; assay: Anticancer cell cytotoxicity assay; type: cell-based; details: Homo sapiens, MCF7, 24 h, read-out: MCF7 IC50 (μM)
[5] = system: A549 lung carcinoma cells; assay: Anticancer cell cytotoxicity assay; type: cell-based; details: Homo sapiens, A549, 24 h, read-out: A549 IC50 (μM)
[6] = system: LS174T colorectal adenocarcinoma cells; assay: Anticancer cell cytotoxicity assay; type: cell-based; details: Homo sapiens, 24 h, read-out: LS174T IC50 (μM)
[7] = system: primary peripheral blood mononuclear cells (PBMCs); assay: Cytotoxicity assay; type: cell-based; details: Homo sapiens, PBMC, 24 h, read-out: PBMCs IC50 (μM)
Cdc25A = biological target: T4, Cdc25A (Homo sapiens, UniProt P30304); assay: CycLex Cdc25A fluorometric phosphatase inhibition assay; type: biochemical
T4 sequence (P30304 1-524): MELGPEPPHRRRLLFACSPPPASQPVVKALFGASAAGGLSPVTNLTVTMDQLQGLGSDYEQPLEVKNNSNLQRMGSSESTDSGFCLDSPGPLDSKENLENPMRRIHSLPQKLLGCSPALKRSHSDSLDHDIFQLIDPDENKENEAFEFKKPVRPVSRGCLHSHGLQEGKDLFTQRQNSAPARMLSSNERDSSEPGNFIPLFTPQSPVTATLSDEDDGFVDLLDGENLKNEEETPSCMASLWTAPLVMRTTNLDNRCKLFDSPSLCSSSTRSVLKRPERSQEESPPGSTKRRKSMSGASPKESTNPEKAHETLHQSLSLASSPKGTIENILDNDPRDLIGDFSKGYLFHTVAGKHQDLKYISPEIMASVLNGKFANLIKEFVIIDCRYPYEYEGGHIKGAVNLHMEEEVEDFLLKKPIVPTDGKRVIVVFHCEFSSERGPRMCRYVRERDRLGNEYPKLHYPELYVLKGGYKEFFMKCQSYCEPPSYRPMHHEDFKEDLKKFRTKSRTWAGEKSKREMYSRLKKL

Cdc25B = biological target: T5, Cdc25B (Homo sapiens, UniProt P30305); assay: CycLex Cdc25B fluorometric phosphatase inhibition assay; type: biochemical
T5 sequence (P30305 1-580): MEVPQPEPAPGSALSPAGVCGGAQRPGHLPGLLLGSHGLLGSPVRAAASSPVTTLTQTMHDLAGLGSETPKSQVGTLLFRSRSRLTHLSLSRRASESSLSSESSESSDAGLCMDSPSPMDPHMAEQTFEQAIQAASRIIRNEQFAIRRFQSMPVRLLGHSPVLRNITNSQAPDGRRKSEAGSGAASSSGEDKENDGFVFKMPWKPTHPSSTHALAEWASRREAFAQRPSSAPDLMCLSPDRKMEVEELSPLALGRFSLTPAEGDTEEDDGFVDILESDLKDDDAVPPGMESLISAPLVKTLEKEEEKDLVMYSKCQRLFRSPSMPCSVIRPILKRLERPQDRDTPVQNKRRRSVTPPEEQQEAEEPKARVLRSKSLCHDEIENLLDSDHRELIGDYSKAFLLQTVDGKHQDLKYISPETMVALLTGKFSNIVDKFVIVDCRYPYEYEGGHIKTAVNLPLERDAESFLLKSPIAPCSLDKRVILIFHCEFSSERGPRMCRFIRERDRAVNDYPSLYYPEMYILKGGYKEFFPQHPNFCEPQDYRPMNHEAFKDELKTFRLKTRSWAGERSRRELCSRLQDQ

Structure (SMILES): CC(C)=CC[C@@H](O)C1=CC(=O)c2c(O)ccc(O)c2C1=O [Compound 1, Shikonin]
- IC50 [1]: > 50 µM
- Kd (MKK7): > 30 µM
- Kd (μM) vs MKK7 (MKK7): did not bind

Structure (SMILES): CC1=CC(=O)c2c(O)cccc2C1=O [Compound 2, Plumbagin, reference compound]
- IC50 [1]: > 50 µM
- IC50 [2]: < 10 µM

Structure (SMILES): O=C1C(SCCO)=C(SCCO)C(=O)c2ccccc21 [Compound 4, 2,3-bis-[(2-hydroxyethyl)thio]-1,4-naphthoquinone, reference compound]
- IC50 [1]: > 50 µM
- Kd (μM) vs MKK7 (MKK7): in the micromolar range
- Kd for MKK4 (MKK4): No MKK4 binding affinity
- IC50 [2]: < 10 µM

- IC50 [1]: > 50 µM
- Kd (MKK7): > 30 µM
Structure (SMILES): CC1=C(SCCO)C(=O)c2ccccc2C1=O [Compound 5, reference compound]

- IC50 [1]: > 50 µM
- Kd (MKK4): 19.5 ± 0.7 µM
Structure (SMILES): O=C(O)CSC1=CC(=O)c2ccccc2C1=O [Compound 6]
- cytotoxicity toward tumor cell lines and PBMCs (in words) [2]: weakly active or inactive

- IC50 [1]: > 50 µM
- fold more active than 6 (MKK7) (MKK7; compared with compound 6): 6 fold
- Kd for MKK4 (MKK4): No MKK4 binding affinity
Structure (SMILES): O=C(O)CCSC1=CC(=O)c2ccccc2C1=O [Compound 7, 3-[(1,4-dioxonaphthalen-2-yl)sulfanyl]propanoic acid]

- Kd for MKK4 (MKK4): No MKK4 binding affinity
Structure (SMILES): CC(SC1=CC(=O)c2ccccc2C1=O)C(=O)O (stereo not shown) [Compound 8]

- IC50 [1]: > 50 µM
Structure (SMILES): CC1=C(SCCC(=O)O)C(=O)c2ccccc2C1=O [Compound 9, vitamin ks-II, reference compound]

Structure (SMILES): CCSC1=C(C)C(=O)c2ccccc2C1=O [Compound 10]
- IC50 [1]: > 50 µM
- IC50 [2]: < 10 µM

Structure (SMILES): COCCSC1=C(C)C(=O)c2ccccc2C1=O [Compound 11]
- IC50 [1]: > 50 µM
- IC50 [2]: < 10 µM

Structure (SMILES): CC1=C(SC(C)C)C(=O)c2ccccc2C1=O [Compound 12]
- IC50 [1]: > 50 µM
- IC50 [2]: < 10 µM

Structure (SMILES): CSC1=C(SC)C(=O)c2ccccc2C1=O [Compound 13]
- IC50 [1]: > 50 µM
- IC50 [2]: < 10 µM

- IC50 [1]: > 50 µM
- Kd (MKK7): > 30 µM
- Kd (μM) vs MKK7 (MKK7): inactive
Structure (SMILES): COc1ccc(OC)c2c1C(=O)C=C(SCCC(=O)O)C2=O [Compound 14, GN25]
- IC50 [3]: > 50 µM
- IC50 [4]: > 50 µM
- IC50 [5]: > 50 µM
- IC50 [6]: > 50 µM
- IC50 [7]: > 50 µM
- cytotoxicity toward tumor cell lines and PBMCs (in words) [2]: weakly toxic or nontoxic

- IC50 [1]: > 50 µM
- Kd (μM) vs MKK7 (MKK7): almost complete loss of binding affinity
Structure (SMILES): COC1=C(OC)C(=O)c2ccccc2C1=O [Compound 15]

- IC50 [1]: > 50 µM
Structure (SMILES): COC1=CC(=O)c2ccccc2C1=O [Compound 16]

- IC50 [1]: > 50 µM
Structure (SMILES): COC1=C(C)C(=O)c2ccccc2C1=O [Compound 17]
- IC50 [3]: > 50 µM
- IC50 [5]: > 50 µM
- IC50 [6]: > 50 µM
- IC50 [7]: > 50 µM

- IC50 [1]: > 50 µM
- Kd (MKK7): > 30 µM
- Kd (μM) vs MKK7 (MKK7): did not bind
Structure (SMILES): CC1=CC(=O)c2ccccc2C1=O [Compound 18, menadione, reference compound]
- IC50 [2]: < 10 µM

Structure (SMILES): O=C1C(O)=C(CN(CCCl)CCCl)C(=O)c2ccccc21 [Compound 19]
- IC50 [1]: > 50 µM

- IC50 [1]: > 50 µM
- Kd (MKK7): > 30 µM
- Kd (μM) vs MKK7 (MKK7): did not bind
- IC50 (Cdc25A): > 50 µM
Structure (SMILES): CC(C)(C)[C@H]1CC[C@H](CC2=C(O)C(=O)c3ccccc3C2=O)CC1 [Compound 21, buparvaquone, reference compound]

- IC50 [1]: > 50 µM
- IC50 (Cdc25B): > 50 µM
Structure (SMILES): O=C(O)CNC1=C(Cl)C(=O)c2ccccc2C1=O [Compound 22a, (3-Chloro-1,4-dioxo-1,4-dihydro-naphthalen-2-ylamino)-acetic acid]

- IC50 [1]: > 50 µM
Structure (SMILES): O=C(O)CCCNC1=C(Cl)C(=O)c2ccccc2C1=O [Compound 22c, 4-(3-Chloro-1,4-dioxo-1,4-dihydro-naphthalen-2-ylamino)-butyric acid]

- IC50 [1]: > 50 µM
- Kd for MKK4 (MKK4): No MKK4 binding affinity
Structure (SMILES): O=C(O)c1cccc(NC2=C(Cl)C(=O)c3ccccc3C2=O)c1 [Compound 22e, 3-(3-Chloro-1,4-dioxo-1,4-dihydro-naphthalen-2-ylamino)-benzoic acid]
- IC50 [2]: < 10 µM

Structure (SMILES): O=C(O)c1ccc(NC2=C(Cl)C(=O)c3ccccc3C2=O)cc1 [Compound 22f, 4-(3-Chloro-1,4-dioxo-1,4-dihydro-naphthalen-2-ylamino)-benzoic acid]
- IC50 [1]: > 50 µM
- IC50 [2]: < 10 µM

- IC50 [1]: > 50 µM
Structure (SMILES): COC(=O)c1ccc(NC2=C(Cl)C(=O)c3ccccc3C2=O)cc1 [Compound 22g, 4-(3-Chloro-1,4-dioxo-1,4-dihydro-naphthalen-2-ylamino)-benzoic acid methyl ester]

- IC50 [1]: > 50 µM
- IC50 (Cdc25B): > 50 µM
Structure (SMILES): O=C1C(Cl)=C(NCCO)C(=O)c2ccccc21 [Compound 23a, 2-Chloro-3-(2-hydroxy-ethylamino)-1,4-naphthoquinone]

- IC50 [1]: > 50 µM
- IC50 (Cdc25B): > 50 µM
Structure (SMILES): O=C1C(Cl)=C(NCCCO)C(=O)c2ccccc21 [Compound 23b, 2-Chloro-3-(3-hydroxy-propylamino)-1,4-naphthoquinone]

- IC50 [1]: > 50 µM
- IC50 (Cdc25B): > 50 µM
- Cdc25B IC50 (μM) (Cdc25B; recombinant Cdc25B, OMFP substrate, 25 °C): inactive
- IC50 (Cdc25A): > 50 µM
- Cdc25A IC50 (μM) (Cdc25A; recombinant Cdc25A, OMFP substrate, 25 °C): inactive
Structure (SMILES): O=C1C(Cl)=C(NCCCN2CCOCC2)C(=O)c2ccccc21 [Compound 24, 2-Chloro-3-(3-morpholin-4-yl-propylamino)-1,4-naphthoquinone]

Structure (SMILES): COC(=O)c1ccc(NC2=C(N3CCCCC3)C(=O)c3ccccc3C2=O)cc1 [Compound 25a, 4-(1,4-Dioxo-3-piperidin-1-yl-1,4-dihydro-naphthalen-2-ylamino)-benzoic acid methyl ester]
- IC50 [1]: > 50 µM
- Kd (MKK7): > 30 µM

- IC50 [1]: > 50 µM
- IC50 (Cdc25B): > 50 µM
- IC50 (Cdc25A): > 50 µM
Structure (SMILES): COC(=O)c1ccc(NC2=C(OC)C(=O)c3ccccc3C2=O)cc1 [Compound 25b, 4-(3-Methoxy-1,4-dioxo-1,4-dihydro-naphthalen-2-ylamino)-benzoic acid methyl ester]
